Values quoted from earlier work, collected in patent US20020111657A1, “Method of controlling body temperature while reducing shivering” (priority 2001, published 2002).

Tested on: shivering threshold
Settings: patients at normal temperature warmed until sweating then cooled until shivering; Talke, et al., Anesthesiology 87(4):835-841, 1997

Structure (SMILES): Cc1cccc([C@H](C)c2cnc[nH]2)c1C [dexmedetomidine]
- effect on shivering threshold: able to lower the shivering threshold

Structure (SMILES): Clc1cccc(Cl)c1N=C1NCCN1 [clonidine]
- effect on shivering threshold: able to lower the shivering threshold
